In patent publication US6541468B1, “Indolocarbazole derivatives useful for the treatment of neurodegenerative diseases and cancer” (Bayer Corporation, priority 1998, dated 2003):
pIC50: −log10 of the molar value. Like-named read-outs stand apart in the source and are kept apart here.

What was measured:
PKC = system: T1, PKC; experiment: PKC inhibition assay; assay type: biochemical, rat; conditions: footnote a) on the CII value: partial inhibition only
T1 construct: PKC was purified from rat brain using the method of Woodgett J. R. and Hunter T., J. Biol. Chem 262, 4836-4843 (1987)
Procedure: Preparation of PKC: PKC was purified from rat brain using the method of Woodgett J. R. and Hunter T., J. Biol. Chem 262, 4836-4843 (1987).
PKC was assayed in 50μ 25 mM HEPES, pH 7.0, 10 mM MgCl2, 2 mM CaCl2, 1 mM EDTA, 1 mM DTT, 0.25 mM ATP, 0.2 mg/mL phosphatidylserine, using 20 ng PKC and 0.08 mg/mL histone III-S as a substrate.
(§1) Enzyme, substrate and inhibitor were preincubated for 5-10 min at 4° C. in assay buffers containing a final concentration of 2% DMSO before initiating the reaction with 0.25 mM γ^2P-ATP. Samples were incubated for 30 min at 37° C. and reactions were terminated with 10% trichloracetic acid/2% sodium pyrophosphate (TCA/PPA), followed by filtration over a glass fiber filtermat (type A) with a cell harvester (Tomtec). The filtermats were washed twice for several hours with TCA/PPA until all background radioactivity was removed. Precipitable counts were quantitated directly on the filtermat with a microbeta scintillation counter system (Wallac-Pharmacia). Inhibitor data were subjected to curve fitting and IC50 values were calculated from these curves using the GraphIt program.

tau hyperphosphorylation = experiment: Okadaic acid induced AD-like tau hyperphosphorylation in SY5Y cells; assay type: cell-based, human; conditions: for pIC50: Homo sapiens
Procedure: (§2) SKNSH-SY 5Y cells were plated on fibronectin-coated 6 well (30 mm^2) culture dishes (Biocoat®, Collaborative Biomedical Products, Inc.) and grown to confluence in 5 mL of 50% D-MEM/50% F-12 Nutrient Mixture (Ham) supplemented with 15% heat-inactivated bovine serum (JRH Bioscience), 0.1 mM non-essential amino acids solution, 2 mM glutamine and pen/strep/fungizone (GibcoBRL Life Technologies, Inc.). Cell culture medium was changed every 48 hours.
(§3) For drug testing, cells were routinely pretreated with inhibitors in 1 mL (30 mm2) for 60 min at concentrations of 30 nM, 100 nM, 300 nM, […]. Compound stocks were all at 10 mM in DMSO and dilutions were made in DMSO. Cells were then treated with 1 μM okadaic acid (ammonium salt; LC Laboratories, dissolved at 1 mM in DMSO) for 90 min. All experiments, including controls, contained a final concentration of between 0.5 and 1% DMSO.
Cells were detached from 30 mm^2 plates and suspended into 1 mL of ice-cold PBS by gentle trituration, transferred into microcentrifuge tubes and sedimented for 12 seconds at 14,000×g. The supernatant was removed and cells were lysed in 250 μl cold homogenization buffer (50 mM MES, pH 5.8, 5 mM sodium pyrophosphate, 50 mM p-nitrophenylphosphate, 1 μM okadaic acid, 2 mM Na-orthovandate, 1 mM EDTA, 1 mM EGTA, 1 mM DTT, 10^ glycerol, 10 μM leupeptin, 1 μM pepstatin, 1 mg/mL aprotinin, 10 μM chymostatin, 1 mM PMSF, and 1% TRITON® x100) and vortexed briefly to aid in lysis. Cell debris was removed by centrifugation at 14,000×g for 5 minutes at 4° C. and cell supernatants were analyzed by anti-ERK2 and anti-tau Western-blotting as described below.
(§4) […] of total cell lysate was run on a 10% tris-glycine polyacrylamide gels (Novex, 1.5 mm×10 well) at 100 volts for 2.5 hors and Western-blotted on nitrocellulose (Novex) overnight at 23 volts or 1.5 hrs at 100V in transfer buffer [Towbin et al. Proc. Natl. Acad. Sci. USA 76, 4350-4354 (1979]) at 4° C. Blots were analyzed for ERK2 and phosphotyrosine immunoreactivity with anti-ERK1+2 (Z033; Zymed Laboratories, Inc.; 1:5,000) and anti-phosphotyrosine (4G10; Upstate Biotechnology Inc.; 1:1,000) mAbs. Blots were also analyzed for phosphorylation-sensitive Tau immuno-reactivity with mAb Tau-1 (Boehringer Mannheim; 1:5,000) and phosphorylation dependent mAb AT8 against FHF-tau (Biosource International; 1:200). Total Tau populations were detected by Tau-1 immunoblotting after treating blots for 16 hrs at 37° C. with 100 units/mL alkaline phosphatase (Gibco BRL) in 5 mL of 50 mM Tris-HCI (pH 8.5), 0.1 mM EDTA. All blots were developed using ECL (enhanced chemiluminescence) Western blotting protocol (Amersham Life Science) with horseradish peroxidase-linked sheep anti-mouse secondary antibody and analyzed on Kodak X-OMAT AR scientific imaging film. Films were scanned into Adobe Photoshop and imported into NIH Image 1.44, where densitometric analysis was performed. Changes in tau phosphorylation were assessed by normalizing densitometrically determined mAb Tau-1 immunoreactivities in cell extracts to Tau-1 reaction after dephosphorylation on the blot. Ratios of Tau-1 reactivity prior to and after dephosphorylation were expressed in % relative to the ratio obtained from control cells not treated with okadaic acid (100%). Proteins isolated form neonatal rat brain were used for comparison in some experiments.
Correlation of potencies of inhibition of PK40 activity in vitro, and of OA-induced ERK2 and tau phosphorylation in SY5Y cells. ERK2 phosphorylation was quantified as the ratio of low mobility/total ERK2, densitometrically determined from ERK2 Western-blots (e.g. of FIG. 1). Tau hyperphosphorylation was expressed as densitometrically measured Tau-1 immunoreactivity normalized to total Tau-1 reactivity after unmasking of the epitope by phosphatase treatment of the blots.
Prevention of tau hyperphosphorylation by the preferred compound CIII (FIG. 1). […]

ERK2 activation = experiment: Okadaic acid induced ERK2 phosphorylation/activation in SY5Y cells; assay type: cell-based, human; conditions: 1 μM okadaic acid; for pIC50: Homo sapiens
Procedure: as §2, §3
Cells were detached from 30 mm^2 plates and suspended into 1 mL of ice-cold PBS by gentle trituration, transferred into microcentrifuge tubes and sedimented for 12 seconds at 14,000×g. […] Cell debris was removed by centrifugation at 14,000×g for 5 minutes at 4° C. and cell supernatants were analyzed by anti-ERK2 and anti-tau Western-blotting as described below.
as §4, with “Films were scanned into Adobe Photoshop and imported into NIH Image 1.44, where densitometric analysis was performed.” left out, “Ratios of Tau-1 reactivity prior to and after dephosphorylation were expressed in % relative to the ratio obtained from control cells not treated with okadaic acid (100%). Proteins isolated form neonatal rat brain were used for comparison in some experiments.” left out

cdc2 kinase = molecular target: T2, cdc2 kinase (Homo sapiens, UniProt P06493); experiment: cdc2 kinase inhibition assay; assay type: biochemical; conditions: 0.25 mM ATP, human recombinant tau substrate
T2 construct: Human cdc2 kinase was prepared from nocodazole-arrested HeLa cells; endogenous in cells; host or cells: nocodazole-arrested HeLa cells
T2 sequence (P06493 whole entry): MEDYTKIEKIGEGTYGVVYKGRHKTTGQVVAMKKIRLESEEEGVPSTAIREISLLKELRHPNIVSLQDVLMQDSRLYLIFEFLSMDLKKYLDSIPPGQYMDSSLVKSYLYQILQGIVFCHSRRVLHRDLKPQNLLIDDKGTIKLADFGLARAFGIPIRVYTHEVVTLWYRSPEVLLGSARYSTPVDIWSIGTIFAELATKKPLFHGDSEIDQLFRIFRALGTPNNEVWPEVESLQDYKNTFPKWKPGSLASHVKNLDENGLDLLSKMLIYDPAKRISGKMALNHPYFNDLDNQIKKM
T2 sequence (P14635 whole entry partner): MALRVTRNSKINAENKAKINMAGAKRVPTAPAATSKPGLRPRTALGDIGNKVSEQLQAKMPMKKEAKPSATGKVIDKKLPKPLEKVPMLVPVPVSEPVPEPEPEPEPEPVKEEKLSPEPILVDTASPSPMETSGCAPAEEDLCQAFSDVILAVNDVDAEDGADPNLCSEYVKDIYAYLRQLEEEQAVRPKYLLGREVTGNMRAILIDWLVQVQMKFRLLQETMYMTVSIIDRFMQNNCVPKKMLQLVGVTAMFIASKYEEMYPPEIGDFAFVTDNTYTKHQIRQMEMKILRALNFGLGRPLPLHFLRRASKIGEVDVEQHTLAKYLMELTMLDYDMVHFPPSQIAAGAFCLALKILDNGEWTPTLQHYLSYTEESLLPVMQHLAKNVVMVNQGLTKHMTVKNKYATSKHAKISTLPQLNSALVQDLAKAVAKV
Procedure: Preparation of cdc2 Kinase: Human cdc2 kinase was prepared from nocodazole-arrested HeLa cells according to Marshak D. M. er al., J. Cell Biochem., 45, 391-400 (1991).
cdc2 kinase was assayed in 50 μl 25 mM HEPES, pH 7.0, 1 mM Mg^2+, 0.25 mM ATP (150-300 cpm/pmole), 1 mM DTT, using 0.5 ng cdc2 kinase, 5 μg human recombinant tau as substrate, and 0.1 mg/mL BSA a as carrier.
as §1

[1] = SY5Y, 1 μM okadaic acid, means of triplicate determinations, read-out: Inhibition in SY5Y cells of tau hyperphos. IC50
[2] = SY5Y, means of triplicate determinations, read-out: Inhibition in SY5Y cells of ERK2 activation IC50

SMILES | pIC50 (PKC) | pIC50 (tau hyperphosphorylation; [1]) | pIC50 (tau hyperphosphorylation; SY5Y cells, okadaic acid, read-out: IC50 for prevention of tau hyperphosphorylation in SY5Y cells) | pIC50 (ERK2 activation; [2]) | pIC50 (cdc2 kinase) | Effect on normal tau phosphorylation (tau hyperphosphorylation; SY5Y cells not treated by okadaic acid) | Fully effective doses for prevention of tau hyperphosphorylation (tau hyperphosphorylation; SY5Y cells, 1 μM okadaic acid) [µM] | Prevention of okadaic acid induced tau hyperphosphorylation (FIG. 1) (tau hyperphosphorylation; SY5Y cells, 1 μM okadaic acid, Tau-1 Western blot) | pIC50 (ERK2 activation; SY5Y cells, read-out: IC50 for prevention of okadaic acid induced ERK2 phosphorylation/activation (FIG. 4)) | Concentration at which prevention of ERK2 phosphorylation/activation is complete (ERK2 activation; SY5Y cells) [µM]
CNC(=O)[C@]1(O)CC2CC1n1c3ccccc3c3c4c(c5c6ccccc6n2c5c31)C(=O)NC4=O (stereo partly drawn) [CII, 9,12-Methano-1H-diindolo[1,2,3-fg:3′,2′,1′-kl]pyrrolo[3,4-I][1,6] benzodiazocine-10-carboxamide, 2,3,9,10,11,12-hexahydro-10-hydroxy-N-methyl-1,3-dioxo-(9α,10β,12α)] | 6.19 | 6.24 | 7.00 | 6.24 | 7.36 |  |  |  |  | 
COC(=O)[C@@]1(O)C[C@H]2C[C@@H]1n1c3ccccc3c3c4c(c5c6ccccc6n2c5c31)C(=O)NC4=O (relative stereo) [CIII, 9,12-Methano-1H-diindolo[1,2,3-fg:3′,2′,1′-kl]pyrrolo[3,4-I][1,6] benzodiazocine-10-carboxylic acid, 2,3,9,10,11,12-hexahydro-10-hydroxy-1,3-dioxomethyl ester, (9α,10β,12α)] | < 4.00 | 5.44 |  | 5.24 | 5.42 | apparently not affected | > 1 | prevents the tau hyperphosphorylation in a dose dependent manner | ~6.00 | 10
